Data set [1] addresses T1, COX-2 (Homo sapiens, UniProt P35354).
T1 construct: incubation of human blood with lipopolysaccharide (LPS), which induces COX-2 production in the blood; endogenous in cells; host or cells: fresh human whole blood from volunteers, treated with aspirin and then LPS
T1 sequence (P35354 18-604): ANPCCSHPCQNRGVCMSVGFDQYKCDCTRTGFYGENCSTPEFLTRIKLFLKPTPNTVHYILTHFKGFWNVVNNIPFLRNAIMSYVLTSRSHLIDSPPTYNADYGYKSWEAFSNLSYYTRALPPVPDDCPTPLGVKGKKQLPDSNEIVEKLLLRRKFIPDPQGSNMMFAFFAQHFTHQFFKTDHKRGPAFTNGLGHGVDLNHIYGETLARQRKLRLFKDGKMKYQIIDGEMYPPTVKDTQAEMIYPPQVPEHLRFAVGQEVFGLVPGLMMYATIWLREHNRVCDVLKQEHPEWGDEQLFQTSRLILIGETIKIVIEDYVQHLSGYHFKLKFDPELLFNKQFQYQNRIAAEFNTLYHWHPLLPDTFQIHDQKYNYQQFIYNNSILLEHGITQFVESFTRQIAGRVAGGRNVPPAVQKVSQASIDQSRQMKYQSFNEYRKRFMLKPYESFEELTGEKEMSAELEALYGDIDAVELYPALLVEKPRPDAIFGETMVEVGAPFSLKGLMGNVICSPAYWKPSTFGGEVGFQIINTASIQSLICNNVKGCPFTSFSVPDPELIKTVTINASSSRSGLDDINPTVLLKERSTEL
Briefly: Human whole blood assay, COX-2 inhibition (PGE2 ELISA after LPS). The format is cell-based. To be noted: 0.25 μM, LPS 24 h. How it is done: In Vivo Evaluation of Cyclooxygenase-2 (COX-2) Inhibition Activity
The COX-2 inhibition activities of the compounds illustrated in the examples are determined by the following method.
Human whole blood provides a protein and cell rich milieu appropriate for the study of biochemical efficacy of anti-inflammatory compounds such as selective COX-2 inhibitors. […] This is correlating with the observation that COX-2 inhibitors have no effect on prostaglandin E2 (PGE2) production in normal blood. These inhibitors are active only after incubation of human blood with lipopolysaccharide (LPS), which induces COX-2 production in the blood.
Fresh blood is collected in tubes containing potassium EDTA by vein puncture from make volunteers. The subjects should have no apparent inflammatory conditions and not taken NSAIDs for at least 7 days prior to blood collection. Blood is treated with aspirin in vitro (10 μg/ml, at time zero) to inactivate COX-1, and then with LPS (10 μg/ml) along with test agents or vehicle. The blood is incubated for 24 h at 37° C., after which the tubes are centrifuged, the plasma is separated and stored at −80° C. (J. Pharmacol. Exp. Ther, 271, 1705, 1994; Proc. Natl. Acad. Sci. USA., 96, 7563, 1999). The plasma is assayed for PGE2 using Cayman ELISA kit as per the procedure outlined by the manufacturer (Cayman Chemicals, Ann Arbor, USA).
In general terms: ELISA stands for enzyme-linked immunosorbent assay.

Data set [2] relates to TNF-α. Briefly: TNF-α production in LPS-stimulated human whole blood. It counts as cell-based. The settings on record: LPS 4 h. How it is done: Tumor Necrosis Factor Alpha (TNF-α)
This assay determines the effect of test compounds on the production of TNF-α in human whole blood. TNF-α assay is carried out as described by Armin hatzelmann and Christian Schudt (J Pharm Exp Ther 297, 261, 2001). Compounds are tested for their ability to inhibit the activity of TNF-α in human whole blood. The test compounds are pre-incubated for 15 minutes at 37° C. and then stimulated with Lipopolysaccharide (Salmonella abortus equi, 1 μg/ml) for 4 h at 37° C. in 5% CO2. The levels of TNF-α are estimated using Enzyme linked Immunosorbent assay performed in a 96 well format as per the procedure of the manufacturer (Cayman Chemical, Ann Arbor, USA).

The term inhibition denotes the share of the control response that was lost under treatment. The low end stands for little suppression, the high end for strong suppression. As a reminder, the melting point is the temperature of the solid-liquid transition. In the case of `COc1cc(-n2c(-c3ccc(SC)cc3)nc(SC)c(C#N)c2=O)cc(OC)c1OC` [Example 13, 5-cyano-1-(3,4,5-trimethoxyphenyl)-4-(methylthio)-2-[4-(methylthio)phenyl]-6-oxo-1,6-dihydropyrimidine], the melting point is 192 to 195 °C. The inhibition at 0.25 µM in data set [1] came to 33.5%. On the same counts, the results for `CCc1ccc(-n2c(-c3ccc(SC)cc3)nc(SC)c(C#N)c2=O)cc1` [Example 14, 5-cyano-1-(4-ethylphenyl)-4-(methylthio)-2-[4-(methylthio)phenyl]-6-oxo-1,6-dihydropyrimidine] are 223 to 225 °C and 28.2%. `CSc1ccc(-c2nc(SC)c(C#N)c(=O)n2-c2ccc(Br)cc2)cc1` [Example 15, 1-(4-bromophenyl)-5-cyano-4-(methylthio)-2-[4-(methylthio)phenyl]-6-oxo-1,6-dihydropyrimidine] displayed a melting point of 213 to 215 °C. In addition, in data set [2], testing at 0.1 µM gave an inhibition of 18.4%. `CSc1ccc(-c2nc(SC)c(C#N)c(=O)n2-c2ccc(C)cc2C)cc1` [Example 19, 5-cyano-1-(2,4-dimethylphenyl)-4-(methylthio)-2-[4-(methylthio)phenyl]-6-oxo-1,6-dihydropyrimidine]: the melting point lay in the range of 203 to 205 °C. Still for that read-out and setting: next, `CSc1nc(-c2ccccc2)n(-c2ccc(C)cc2)c(=O)c1C#N` [Example 23, 5-cyano-1-(4-methylphenyl)-4-(methylthio)-6-oxo-2-phenyl-1,6-dihydropyrimidine]: 258 to 260 °C; `CCCCc1ccc(-n2c(-c3ccc(SC)cc3)nc(SC)c(C#N)c2=O)cc1` [Example 24, 1-(4-n-butylphenyl)-5-cyano-4-(methylthio)-2-[4-(methylthio)phenyl]-6-oxo-1,6-dihydropyrimidine]: 138 to 141 °C. `CSc1nc(-c2ccncc2)n(-c2ccc(F)cc2)c(=O)c1C#N` [Example 25, 5-cyano-1-(4-fluorophenyl)-4-(methylthio)-6-oxo-2-pyridin-4-yl-1,6-dihydropyrimidine] yielded a melting point of 301 to 303 °C. In addition, in data set [2] (1 μM), the inhibition at 1 µM stood at 59.6%. In the case of `COc1ccc(-n2c(-c3ccccn3)nc(SC)c(C#N)c2=O)cc1` [Example 31, 5-cyano-4-(methylthio)-1-(4-methoxyphenyl)-6-oxo-2-pyridin-2-yl-1,6-dihydropyrimidine], the melting point lay in the range of 246 to 253 °C. For the same compound, the inhibition at 0.1 µM in data set [2] was determined as 20.2%. For `CSc1nc(-c2ccccn2)n(-c2ccc(C)c(C)c2)c(=O)c1C#N` [Example 32, 5-cyano-4-(methylthio)-1-(3,4-dimethylphenyl)-6-oxo-2-pyridin-2-yl-1,6-dihydropyrimidine], in that order: 218 to 223 °C and 17.9%. `CCc1ccc(-n2c(-c3ccccn3)nc(SC)c(C#N)c2=O)cc1` [Example 33, 5-cyano-4-(methylthio)-1-(4-ethylphenyl)-6-oxo-2-pyridin-2-yl-1,6-dihydropyrimidine] had a melting point of 172 to 175 °C. The same measure, in the same setting: next, `CSc1nc(-c2ccccn2)n(-c2ccc(C)cc2)c(=O)c1C#N` [Example 34, 5-cyano-4-(methylthio)-1-(4-methylphenyl)-6-oxo-2-pyridin-2-yl-1,6-dihydropyrimidine]: 247 to 248 °C. On the same count and under the same terms, in the case of `CCOc1ccc(-n2c(-c3ccncc3)nc(SC)c(C#N)c2=O)cc1` [Example 35, 5-cyano-4-(methylthio)-1-(4-ethoxyphenyl)-6-oxo-2-pyridin-4-yl-1,6-dihydropyrimidine] it was 201 to 204 °C; in that of `CSc1nc(-c2ccncc2)n(-c2ccc(C)cc2)c(=O)c1C#N` [Example 36, 5-cyano-4-(methylthio)-1-(4-methylphenyl)-6-oxo-2-pyridin-4-yl-1,6-dihydropyrimidine], > 250 °C. In turn, `CSc1nc(-c2ccncc2)n(-c2ccc(C(C)C)cc2)c(=O)c1C#N` [Example 37, 5-cyano-4-(methylthio)-1-(4-isopropylphenyl)-6-oxo-2-pyridin-4-yl-1,6-dihydropyrimidine] registered a melting point of 173 to 175 °C. Still for that read-out and setting: next, `CCc1ccc(-n2c(-c3cccnc3)nc(SC)c(C#N)c2=O)cc1` [Example 38, 5-cyano-4-(methylthio)-1-(4-ethylphenyl)-6-oxo-2-pyridin-3-yl-1,6-dihydropyrimidine]: 207 to 209 °C.

With `CSc1nc(-c2cccnc2)n(-c2ccc(C)c(C)c2)c(=O)c1C#N` [Example 39, 5-cyano-4-(methylthio)-1-(3,4-dimethylphenyl)-6-oxo-2-pyridin-3-yl-1,6-dihydropyrimidine], the melting point is > 250 °C. Same read-out and setting: in the case of `COc1ccc(-n2c(-c3cccnc3)nc(SC)c(C#N)c2=O)cc1` [Example 40, 5-cyano-4-(methylthio)-1-(4-methoxyphenyl)-6-oxo-2-pyridin-3-yl-1,6-dihydropyrimidine] it was 230 to 233 °C; in that of `Cc1ccc(-n2c(-c3ccc(S(C)(=O)=O)cc3)nc(S(C)(=O)=O)c(C(N)=O)c2=O)cc1` [Example 44, 5-carboxamido-1-(4-methylphenyl)-4-(methylsulfonyl)-2-[4-(methylsulfonyl)phenyl]-6-oxo-1,6-dihydropyrimidine], 260 to 262 °C; in that of `Cc1ccc(-n2c(-c3ccc(S(C)(=O)=O)cc3)nc(N3CCNCC3)c(C(N)=O)c2=O)cc1` [Example 45, 5-carboxamido-1-(4-methylphenyl)-2-[4-(methylsulfonyl)phenyl]-6-oxo-4-piperazin-1-yl-1,6-dihydropyrimidine], 269 to 275 °C. Same read-out and setting: next, `CNc1nc(-c2ccc(S(C)(=O)=O)cc2)n(-c2ccc(C)cc2)c(=O)c1C(N)=O` [Example 46, 5-carboxamido-4-(methylamino)-1-(4-methylphenyl)-2-[4-(methylsulfonyl)phenyl]-6-oxo-1,6-dihydropyrimidine]: > 300 °C; `Cc1ccc(-n2c(-c3ccc(S(C)(=O)=O)cc3)nc(N3CCOCC3)c(C(N)=O)c2=O)cc1` [Example 47, 5-carboxamido-1-(4-methylphenyl)-2-[4-(methylsulfonyl)phenyl]-4-morpholin-4-yl-6-oxo-1,6-dihydropyrimidine]: 226 to 228 °C. `CS(=O)(=O)c1ccc(-n2c(-c3ccc(F)cc3)nc(S(C)(=O)=O)c(C(N)=O)c2=O)cc1` [Example 48, 5-carboxamido-2-(4-fluorophenyl)-4-(methylsulfonyl)-1-[4-(methylsulfonyl)phenyl]-6-oxo-1,6-dihydropyrimidine] came in with a melting point of 237 to 241 °C.

In turn, `Cc1ccc(-n2c(-c3ccc(S(C)(=O)=O)cc3)nc(S(C)(=O)=O)c(C(N)=O)c2=O)cc1C` [Example 51, 5-carboxamido-1-(3,4-dimethylphenyl)-4-(methylsulfonyl)-2-[4-(methylsulfonyl)phenyl]-6-oxo-1,6-dihydropyrimidine] gave a melting point of 245 to 248 °C. With `CS(=O)(=O)c1ccc(-n2c(-c3ccc(F)cc3)nc(O)c(C#N)c2=O)cc1` [Example 52, 5-cyano-2-(4-fluorophenyl)-4-hydroxy-1-[4-(methylsulfonyl)phenyl]-6-oxo-1,6-dihydropyrimidine], the melting point was > 285 °C. Still for that read-out and setting: in the case of `Cc1ccc(-n2c(-c3ccc(S(C)(=O)=O)cc3)nc(O)c(C#N)c2=O)cc1C` [Example 53, 5-cyano-1-(3,4-dimethylphenyl)-4-hydroxy-2-[4-(methylsulfonyl)phenyl]-6-oxo-1,6-dihydropyrimidine] it was > 285 °C.

The values above are taken from US7365069B2, “Pyrimidone derivatives” (Bexel Pharmaceuticals Inc., priority 2002, dated 2008).
